{"source": "patent US6759435B1", "about": "“Antidepressant drugs and methods” (A.P. Group Inc., priority 2003, dated 2004)", "key": {"[1]": {"test_system": "PCA-induced serotonin depletion (5HT uptake into 5HT neurons), rat whole brain", "assay": "Antagonism of parachloroamphetamine (PCA)-induced depletion of serotonin levels from rat brain in vivo", "parameters": "species or system Sprague-Dawley CD male rats", "conditions": "subcutaneous, together with 6.6 mg/kg PCA, whole brain serotonin four hours later", "from_the_text": "Ability of (1-{2-[1-(3,4-Dichloro-phenyl)-ethyl]-phenyl}-ethyl)-methyl-amine Hydrochloride to Antagonize Parachloroamphetamine (PCA)-induced Depletion of Serotonin Levels from Rat Brain In Vivo\nSerotonin uptake blockers show a dose-dependent antagonism of the serotonin-depleting action of PCA, a drug which requires 5HT uptake into 5HT neurons to exert its effect. Sprague-Dawley CD male rats (180-230 g.) in groups of five received two simultaneous subcutaneous injections: either the named test compound (at different dosage levels)+6.6 mg/kg body weight PCA, water+6.6 mg/kg body weight PCA, or water+water (controls). The rats were decapitated four hours later and their whole brain assayed for serotonin content by the Bogdanski method. Homogenates of brain in 0.1N HCl were made alkaline with borate buffer and extracted with butanol. The solvent phase was then extracted with 0.1N HCl. The aqueous extracts were acidified with concentrated HCl and the intrinsic fluorescence of serotonin measured in a spectrophotofluorometer. The ED50, i.e., the dose giving a 50% reversal of the PCA-induced serotonin depletion, was estimated to be 0.1 mg/kg body weight. Similarly, the ED50 for other compounds in Examples 1-17 were determined and were <0.3 mg/kg."}, "[2]": {"test_system": "immobility of Swiss-Webster CD male mice", "assay": "Reduction of behavioral despair in vivo (modified Porsolt method)", "conditions": "mouse, subcutaneous, tested one hour after injection, linear regression analysis of % MPE data", "method": "Reduction of Behavioral Despair In Vivo (Modified Porsolt Method) by (1-{2-[1-(3,4-Dichloro-phenyl)-ethyl]-phenyl}-ethyl)-methyl-amine hydrochloride.\nA modification of the procedure described by Porsolt et al., Arch. Int. Pharmnacodyn., 229, pp. 327-336 (1977) was used. A number of Swiss-Webster CD male mice weighing 25-30 g. were housed under standard laboratory conditions for at least one week prior to experimentation. Groups of 10 mice were then injected subcutaneously with either a given dosage of the named test compound or vehicle (5% Emulphor: 5% ethanol: 90% normal saline). One hour later the mice were placed individually in 1 liter beakers containing 7 cm of 25° C. water. […] A total of ten observations were made, each being scored as “0=animal moving, swimming, attempting to escape” or “1=animal immobile”. The number of positive observations for each mouse was then totaled and a mean immobility score calculated for the group of ten. […] From the % MPE data a % MPE50 value, i.e. the dosage producing a 50% reduction in immobility relative to control, was determined by linear regression analysis to be 5.2 mg/kg body weight for the named test compound. Similarly, the % MPE50 values were determined for other compounds in examples 1-17 and were <8.0 mg/kg."}}}
{"smiles": "CNC(C)c1ccccc1C(C)c1ccc(Cl)c(Cl)c1.Cl", "note": "(centres unmarked) [(1-{2-[1-(3,4-Dichloro-phenyl)-ethyl]-phenyl}-ethyl)-methyl-amine Hydrochloride]", "values": [{"measurement": "ED50, the dose giving a 50% reversal of the PCA-induced serotonin depletion", "setting": "[1]", "result": 0.1, "unit": "mg/kg body weight"}, {"measurement": "% MPE50, the dosage producing a 50% reduction in immobility relative to control", "setting": "[2]", "result": 5.2, "unit": "mg/kg body weight"}]}
